Test results published in ChEMBL document CHEMBL1201862, “PubChem BioAssay data set” (2004).
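Method: 48-hour compound exposure of cells in 96-well plates, five concentrations, linear interpolation of endpoints. GI50 is the concentration that inhibits growth by half.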 Calls of active or inactive are those of the source. Cut-off read from the data, not from the text of the source: active = GI50 up to about 1.1 µM and inactive = higher.

Legend:
Test in all cases: inhibition of tumour cell growth, NCI panel, 48 h
[1] = system: HCC 2998
[2] = system: ACHN
[3] = system: SNB-75
[4] = system: OVCAR-5
[5] = system: A549
[6] = system: IGROV-1
[7] = system: DLD-1
[8] = system: SNB-19
[9] = system: EKVX
[10] = system: UACC-62
[11] = system: CCRF-CEM
[12] = system: Hs-578T
[13] = system: OVCAR-3
[14] = system: SF-268
[15] = system: HOP-92
[16] = system: HT-29
[17] = system: SK-MEL-5
[18] = system: NCI-H226
[19] = system: T47D
[20] = system: MOLT-4

| SMILES | GI50 [1] | GI50 [2] | GI50 [3] | GI50 [4] | GI50 [5] | GI50 [6] | GI50 [7] | GI50 [8] | GI50 [9] | GI50 [10] | GI50 [11] | GI50 [12] | GI50 [13] | GI50 [14] | GI50 [15] | GI50 [16] | GI50 [17] | GI50 [18] | GI50 [19] | GI50 [20] |
| --- | --- | --- | --- | --- | --- | --- | --- | --- | --- | --- | --- | --- | --- | --- | --- | --- | --- | --- | --- | --- |
| COc1ccc(C2C(C)C(=O)C(C)C(c3ccc(OC)cc3)N2N=O)cc1 (stereo not given) | > 750 µM (inactive) | 175 µM (inactive) | 26.5 µM (inactive) | 393 µM (inactive) | 239 µM (inactive) | 165 µM (inactive) | > 1000 µM (inactive) | 195 µM (inactive) | > 830 µM (inactive) | > 506 µM (inactive) | > 700 µM (inactive) | 56.5 µM (inactive) | 454 µM (inactive) | 171 µM (inactive) | 53.5 µM (inactive) | > 738 µM (inactive) | > 575 µM (inactive) | 207 µM (inactive) | 127 µM (inactive) | > 789 µM (inactive) |
| O=C1C=C(NCCc2ccccc2)c2ccccc2C1=O | 1.79 µM (inactive) | 2.82 µM (inactive) | 1.69 µM (inactive) | 1.98 µM (inactive) | 1.95 µM (inactive) | 7.28 µM (inactive) | 6.03 µM (inactive) | 2.81 µM (inactive) | 5.78 µM (inactive) | 1.79 µM (inactive) | 12.3 µM (inactive) | 2.08 µM (inactive) | 1.44 µM (inactive) | 7.24 µM (inactive) | 12.5 µM (inactive) | 3.49 µM (inactive) | 1.09 µM (active) | 2.06 µM (inactive) | 16.7 µM (inactive) | 7.33 µM (inactive) |
